Consider 23 compounds from ChEMBL document CHEMBL1148702, “Orally bioavailable potent soluble epoxide hydrolase inhibitors” (J Med Chem, 2007).

A short description of one data set: in vivo. The conditions noted are these: dog, plasma, po, 0.3 mg/kg.
A further data set has as its system Liver microsomes. The conditions noted are these: human.

What is called AUC is the area under the concentration-time curve, a measure of exposure.

For `O=C(O)CCCCCCCCCCCNC(=O)NC12CC3CC(CC(C3)C1)C2`, the exposure (AUC) in the data set “in vivo” is 0.0667 µM·h.
Take `O=C(NC12CC3CC(CC(C3)C1)C2)N[C@H]1CC[C@@H](OCc2c(Cl)cccc2Cl)CC1`: the Stability in the data set with Liver microsomes amounted to 26%.
With `CC(C)Oc1cc(F)c(CO[C@H]2CC[C@@H](NC(=O)NC34CC5CC(CC(C5)C3)C4)CC2)c(F)c1`, the Stability in the data set with Liver microsomes is 29%.
On to `O=C(NC12CC3CC(CC(C3)C1)C2)N[C@H]1CC[C@@H](OCc2ccc(Br)cc2)CC1`, for which the Stability in the data set with Liver microsomes was determined as 20%.
`CCOCCOCCOCCCCCNC(=O)NC12CC3CC(CC(C3)C1)C2` showed an exposure (AUC) in “in vivo” of 0.317 µM·h.
Turning to `O=C(NC12CC3CC(CC(C3)C1)C2)N[C@H]1CC[C@H](OCc2ccc(Br)cc2)CC1`, in the data set on Liver microsomes, the Stability came to 41%.
`O=C(NC12CC3CC(CC(C3)C1)C2)N[C@H]1CC[C@H](OCc2ccccc2Cl)CC1` returned a Stability in the data set with Liver microsomes of 54%.
The same measure, in the same setting: the value for `O=C(NC12CC3CC(CC(C3)C1)C2)N[C@H]1CC[C@H](OCc2c(Cl)cccc2Cl)CC1` was 51%; that for `O=C(NC12CC3CC(CC(C3)C1)C2)N[C@H]1CC[C@H](Oc2ccc(Br)cc2)CC1` was 23%; that for `O=C(NC12CC3CC(CC(C3)C1)C2)N[C@H]1CC[C@H](Oc2ccc(F)cc2)CC1` was 69%.
In the data set on Liver microsomes, `O=C(NC12CC3CC(CC(C3)C1)C2)N[C@H]1CC[C@@H](Oc2ccc(Br)cc2)CC1` showed a Stability of 35%.
Consider `COc1ccc(O[C@H]2CC[C@@H](NC(=O)NC34CC5CC(CC(C5)C3)C4)CC2)cc1`, for which the Stability in the data set with Liver microsomes was 14%.
Regarding `O=C(NC12CC3CC(CC(C3)C1)C2)N[C@H]1CC[C@@H](Oc2ccc([N+](=O)[O-])cc2)CC1`, the Stability with Liver microsomes is reported as 15%.
As for `O=C(NC12CC3CC(CC(C3)C1)C2)N[C@H]1CC[C@@H](OCc2ccccc2Cl)CC1`, in the data set with Liver microsomes, the Stability is 25%.
On the same count and under the same terms, the value for `O=C(NC12CC3CC(CC(C3)C1)C2)N[C@H]1CC[C@@H](Oc2ccc(F)cc2)CC1` was 21%.
Compound `O=C(NC12CC3CC(CC(C3)C1)C2)N[C@H]1CC[C@H](OCc2c(F)cccc2F)CC1` came in with a Stability with Liver microsomes of 43%.
Same read-out and setting: with `O=C(NC12CC3CC(CC(C3)C1)C2)N[C@H]1CC[C@@H](OCc2c(F)cccc2F)CC1` the figure was 19%.
Take `O=C(NC12CC3CC(CC(C3)C1)C2)N[C@H]1CC[C@H](OCc2ccccc2)CC1`: the Stability in the data set with Liver microsomes came out at 67%.
Take `Cc1ccccc1CO[C@H]1CC[C@H](NC(=O)NC23CC4CC(CC(C4)C2)C3)CC1`: the Stability in the data set with Liver microsomes came out at 67%.
The same measure, in the same setting: the value for `O=C(NC12CC3CC(CC(C3)C1)C2)N[C@H]1CC[C@@H](Oc2cc(F)cc(F)c2)CC1` was 20%; that for `Cc1ccccc1CO[C@H]1CC[C@@H](NC(=O)NC23CC4CC(CC(C4)C2)C3)CC1` was 14%.
As to `CC(C)Oc1cc(F)c(CO[C@H]2CC[C@H](NC(=O)NC34CC5CC(CC(C5)C3)C4)CC2)c(F)c1`, in the data set with Liver microsomes, the Stability was determined as 34%.
`COc1ccc(O[C@H]2CC[C@H](NC(=O)NC34CC5CC(CC(C5)C3)C4)CC2)cc1` displayed a Stability with Liver microsomes of 82%.
